# Key:
# [1] = test system: Pseudomonas aeruginosa NBRC13275; experiment: Bactericidal test on carriers with adhered Pseudomonas aeruginosa and dried organic substance (AOAC Official Method 964.02), surviving cell count; Examples 1, 4, 5; format: cell-based
# Description: The test was conducted in accordance with AOAC Official Method 964.02 Testing Disinfectants against Pseudomonas aeruginosa.
# The water prepared as described above to contain oxygen-filled ultrafine bubbles or the purified water of the Japanese Pharmacopoeia was used to dilute povidone iodine such that it was conditioned to 100 mg/L.
# A cryopreserved bacterial strain (Pseudomonas aeruginosa NBRC13275) was grown in a tryptic soy agar (Difco; hereinafter referred to as TSA medium) at 36±1° C. for 18-24 hours. The grown cells were transplanted into a tryptic soy broth (Difco; hereinafter referred to as TSB medium) where they were cultured at 36±1° C. for 18-24 hours. The liquids of the thus cultured cells were conditioned with a TSB medium to an approximate value of 10^6 CFU/mL and the resulting liquids were used as test bacterial liquids.
# A sterile bioassay cup (stainless steel Penicillin Cup 441-01 made by Sogo Rikagagu glass; hereinafter designated as a carrier) was placed in a 100-mL beaker, into which test bacterial liquids were poured in such amounts that the carrier would be completely immersed (ca. 30-40 mL). After allowing the beaker to stand for 10-15 minutes, the carrier was transferred onto a Petri dish with sterile filter paper spread on the bottom and by allowing the Petri dish to stand at 36±1° C. for 40±2 minutes, the bacterial cells and the organic substance derived from the mediums were dried and adhered to the carrier.
# The test liquids preliminarily held at 25±2° C. were each dispensed in 10 mL into centrifugal tubes having a capacity of 50 mL; using a hook of platinum wire, the carriers to which the test bacterium adhered were put into the centrifugal tubes, one for each, and allowed to act at 25±2° C. for 20 minutes. Thereafter, the carriers were transferred into centrifugal tubes containing 10 mL of an inactivator SCDLP medium (Eiken Chemical Co., Ltd.), one for each, so as to inactivate the bactericidal component in the test liquid adhering to the carrier. The carriers were then treated with a sonicator at 20±2° C. for 5 minutes to wash off the test bacterium; the test liquids were agitated for an additional minute with a vortex mixer to prepare sample liquids for cell count and the number of surviving cells was counted. A control was prepared by the same procedure as described above, except that the test liquids were replaced by sterile physiological saline.
# The sample liquids for cell count (stock liquids) were serially diluted 10-fold with sterile physiological saline; the sample liquids or the series of dilutions, each weighing a volume of 1 mL, were transferred aseptically into Petri dishes and, after mixing with 20 mL of a TSA medium, they were solidified and cultured at 36±1° C. for 48 hours. Thereafter, colonies growing on the medium were counted to determine the number of surviving cells per carrier (lower limit for quantification: 10 CFU/carrier).
# To obtain those results, the test was replicated in five runs (n=5) and after eliminating minimum and maximum values, an averaged cell count for n=3 was indicated as a logarithmic value.
# An experiment was conducted by the same method as in Example 1, except for the following points: water containing oxygen-filled ultrafine bubbles prepared as described above or purified water was used to dilute povidone iodine such that it was conditioned to 100 mg/L; in addition, the most frequent particle density of the water containing ultrafine bubbles were adjusted to orders of 10^4, 10^5, 10^6, and 10^8 per mL.
# An experiment was conducted by the same method as in Example 1, except that water containing atmospheric air- or C3F8-filled ultrafine bubbles prepared as described above or purified water was used to dilute povidone iodine such that it was conditioned to 100 mg/L.
# [2] = test system: Streptococcus mutans (ATCC25175) biofilm; experiment: Bactericidal effect on cariogenic bacteria-formed biofilms, surviving cells in the biofilm; format: cell-based; conditions: Example 3, 37°C, 20 min
# Description: Either water containing oxygen-filled ultrafine bubbles prepared as described above or purified water was used to dilute povidone iodine to condition the same to 1.0 mg/mL and 10 mg/mL.
# Streptococcus mutans (ATCC25175) was grown in a Tryptic soy Broth supplemented with 0.5% yeast extract (the resulting medium is hereinafter referred to as TSBY medium) at 37° C. until the OD660 was between 0.6 and 0.8 (10^8 cells/mL); the product was used as a test bacterial liquid.
# A TSBY medium (plus 1% sucrose) placed in a test tube in a volume of 4950 μL was inoculated with 50 μL of the test bacterial liquid and was cultured at 37° C. for 18 hours to form a biofilm.
# From the test tube in which the biofilm was formed, the culture broth was removed by means of an aspirator and the biofilm was washed with 5 mL of an added PBS. After removing the PBS, 5 mL of the test liquid was treated for reaction as it was shaken with a shaking machine (37° C.×20 min). After the 20-min reaction, 5 mL of 0.4% (w/v) sodium thiosulfate in solution was added into the test tube so as to inactivate the bactericidal agent. Using a sonicator, the biofilm was detached from the inner surfaces of the test tube and dispersed with a vortex mixer thereby prepare a sample liquid for cell count; the number of surviving cells in the biofilm was then counted.
# The sample liquids for cell count were diluted with a buffer solution; after culture in an MS agar medium (37° C.×36-48 hours), the number of colonies formed was counted to determine the number of surviving cells in the biofilms.
# To obtain those results, the test was replicated in 5 runs (n=5).
# [3] = Example 1, povidone iodine 100 mg/L conditioned with water (purified water), 25°C, 20 min
# [4] = Example 1, povidone iodine 100 mg/L conditioned with water containing oxygen-filled ultrafine bubbles (91 nm; 3.1x10^8, total 2.3x10^10 particles/ml), 25°C, 20 min
# [5] = Example 4, povidone iodine 100 mg/L conditioned with water (purified water)
# [6] = Example 4, povidone iodine 100 mg/L, water containing oxygen-filled ultrafine bubbles, 81 nm, most frequent particle density 7.2 × 10^4, total 4.2 × 10^6 particles/ml
# [7] = Example 4, povidone iodine 100 mg/L, water containing oxygen-filled ultrafine bubbles, 81 nm, most frequent particle density 7.2 × 10^5, total 4.2 × 10^7 particles/ml
# [8] = Example 4, povidone iodine 100 mg/L, water containing oxygen-filled ultrafine bubbles, 81 nm, most frequent particle density 7.2 × 10^6, total 4.2 × 10^8 particles/ml
# [9] = Example 4, povidone iodine 100 mg/L, water containing oxygen-filled ultrafine bubbles, 81 nm, most frequent particle density 7.2 × 10^8, total 4.2 × 10^10 particles/ml
# [10] = Example 5, povidone iodine 100 mg/L conditioned with water (purified water)
# [11] = Example 5, povidone iodine 100 mg/L, water containing C3F8-filled ultrafine bubbles (76 nm; 2.7x10^8, total 1.3x10^10 particles/ml)
# [12] = Example 5, povidone iodine 100 mg/L, water containing atmospheric air-filled ultrafine bubbles (75 nm; 5.7x10^8, total 4.6x10^10 particles/ml)
# [13] = povidone iodine concentration 1 (table head mg/L; text 1.0 mg/mL) conditioned with water (purified water)
# [14] = povidone iodine concentration 1 (table head mg/L; text 1.0 mg/mL) conditioned with water containing oxygen-filled ultrafine bubbles (100 nm; 2.0x10^7, total 1.6x10^9 particles/ml)
# [15] = povidone iodine concentration 10 (table head mg/L; text 10 mg/mL) conditioned with water (purified water)
# [16] = povidone iodine concentration 10 (table head mg/L; text 10 mg/mL) conditioned with water containing oxygen-filled ultrafine bubbles (100 nm; 2.0x10^7, total 1.6x10^9 particles/ml)
substance,measurement,setting,value
povidone iodine,Cell count CFU/carrier average,[1]; [3],8000 CFU/carrier
same,Cell count CFU/carrier n1,[1]; [3],23000 CFU/carrier
same,Cell count CFU/carrier n2,[1]; [3],19000 CFU/carrier
same,Cell count CFU/carrier n3,[1]; [3],26000 CFU/carrier
same,log value (averaged surviving cell count as logarithmic value),[1]; [3],3.9
same,Cell count CFU/carrier average,[1]; [4],23 CFU/carrier
same,Cell count CFU/carrier n1,[1]; [4],10 CFU/carrier
same,Cell count CFU/carrier n2,[1]; [4],10 CFU/carrier
same,Cell count CFU/carrier n3,[1]; [4],50 CFU/carrier
same,log value (averaged surviving cell count as logarithmic value),[1]; [4],1.4
same,Cell count CFU/carrier average,[1]; [5],44000 CFU/carrier
same,Cell count CFU/carrier n1,[1]; [5],46000 CFU/carrier
same,Cell count CFU/carrier n2,[1]; [5],47000 CFU/carrier
same,Cell count CFU/carrier n3,[1]; [5],39000 CFU/carrier
same,Log value,[1]; [5],4.6
same,Cell count CFU/carrier average,[1]; [6],5300 CFU/carrier
same,Cell count CFU/carrier n1,[1]; [6],5900 CFU/carrier
same,Cell count CFU/carrier n2,[1]; [6],2200 CFU/carrier
same,Cell count CFU/carrier n3,[1]; [6],7700 CFU/carrier
same,Log value,[1]; [6],3.7
same,Observed bactericidal efficacy,[1]; [6],Δ
same,Cell count CFU/carrier average,[1]; [7],<10 CFU/carrier
same,Cell count CFU/carrier n1,[1]; [7],4200 CFU/carrier
same,Cell count CFU/carrier n2,[1]; [7],<10 CFU/carrier
same,Cell count CFU/carrier n3,[1]; [7],<10 CFU/carrier
same,Log value,[1]; [7],3.1
same,Observed bactericidal efficacy,[1]; [7],○
same,Cell count CFU/carrier average,[1]; [8],<10 CFU/carrier
same,Cell count CFU/carrier n1,[1]; [8],<10 CFU/carrier
same,Cell count CFU/carrier n2,[1]; [8],<10 CFU/carrier
same,Cell count CFU/carrier n3,[1]; [8],<10 CFU/carrier
same,Log value,[1]; [8],<1.0
same,Observed bactericidal efficacy,[1]; [8],○
same,Cell count CFU/carrier average,[1]; [9],<10 CFU/carrier
same,Cell count CFU/carrier n1,[1]; [9],<10 CFU/carrier
same,Cell count CFU/carrier n2,[1]; [9],<10 CFU/carrier
same,Cell count CFU/carrier n3,[1]; [9],<10 CFU/carrier
same,Log value,[1]; [9],<1.0
same,Observed bactericidal efficacy,[1]; [9],○
same,Cell count CFU/carrier average,[1]; [10],4500 CFU/carrier
same,Cell count CFU/carrier n1,[1]; [10],3200 CFU/carrier
same,Cell count CFU/carrier n2,[1]; [10],1800 CFU/carrier
same,Cell count CFU/carrier n3,[1]; [10],8600 CFU/carrier
same,Log value,[1]; [10],3.7
same,Cell count CFU/carrier average,[1]; [11],<10 CFU/carrier
same,Cell count CFU/carrier n1,[1]; [11],<10 CFU/carrier
same,Cell count CFU/carrier n2,[1]; [11],<10 CFU/carrier
same,Cell count CFU/carrier n3,[1]; [11],<10 CFU/carrier
same,Log value,[1]; [11],1.0
same,Cell count CFU/carrier average,[1]; [12],32 CFU/carrier
same,Cell count CFU/carrier n1,[1]; [12],10 CFU/carrier
same,Cell count CFU/carrier n2,[1]; [12],75 CFU/carrier
same,Cell count CFU/carrier n3,[1]; [12],<10 CFU/carrier
same,Log value,[1]; [12],1.5
same,Cell count CFU average,[2]; [13],616.6 CFU
same,Cell count CFU n1,[2]; [13],612 CFU
same,Cell count CFU n2,[2]; [13],439 CFU
same,Cell count CFU n3,[2]; [13],1050 CFU
same,Cell count CFU n4,[2]; [13],386 CFU
same,Cell count CFU n5,[2]; [13],596 CFU
same,Cell count CFU average,[2]; [14],149.2 CFU
same,Cell count CFU n1,[2]; [14],250 CFU
same,Cell count CFU n2,[2]; [14],35 CFU
same,Cell count CFU n3,[2]; [14],178 CFU
same,Cell count CFU n4,[2]; [14],150 CFU
same,Cell count CFU n5,[2]; [14],133 CFU
same,Cell count CFU average,[2]; [15],9.2 CFU
same,Cell count CFU n1,[2]; [15],9 CFU
same,Cell count CFU n2,[2]; [15],22 CFU
same,Cell count CFU n3,[2]; [15],13 CFU
same,Cell count CFU n4,[2]; [15],0 CFU
same,Cell count CFU n5,[2]; [15],2 CFU
same,Cell count CFU average,[2]; [16],0 CFU
same,Cell count CFU n1,[2]; [16],0 CFU
same,Cell count CFU n2,[2]; [16],0 CFU
same,Cell count CFU n3,[2]; [16],0 CFU
same,Cell count CFU n4,[2]; [16],0 CFU
same,Cell count CFU n5,[2]; [16],0 CFU
